Source: patent US20080311126A1, “Antisense Oligonucleotides Directed to Ribonucleotide Reducatase R2 and Uses Thereof in Combination Therapies for the Treatment of Cancer” (Genesense Technologies, Inc, priority 2004, published 2008)
Oligonucleotides are written 5' to 3', each unit as a sugar letter and its base; * is a phosphorothioate linkage, no mark a phosphodiester; rarer units and linkages stand in square brackets, end groups in braces. Plain capitals give the bases only. d = 2'-deoxy (DNA)

How the values were obtained:
Assay in all cases: Relative colony forming efficiency (Example 17, Table 13)
Type in all cases: cell-based, human
[1] = system: A549 lung cell carcinoma; details: averages of 2-8 determinations
Description: (§1) Colony forming efficiency was determined using standard protocols. […] The test oligonucleotides were added to cell cultures in the presence of 2.5 μg of DOTMA/DOPE (Lipofectin; Life Technologies, Inc.) for four hours. The oligonucleotide was tested at 0.2 μM unless otherwise indicated. Controls were the cultures treated with lipofectin but without the oligonucleotide. […] Surviving cells were visualized by methylene blue staining, and colonies were scored. In some experiments cell aliquots were removed from the culture and viability was determined using the trypan blue exclusion test. Results were analyzed as percent of surviving cells compared to control cells. To test the antisense effects of many of these sequences as phosphorthioate deoxyribonucleotides, they were examined in relative colony forming experiments conducted as described in Example 16 with a series of human tumour cell lines. The results (shown as % inhibition of colony forming ability) obtained with cancer cells derived from the bladder, breast, lung, colon, pancreas, prostate, liver and cervix, are shown in Table 13. The specific cell lines employed are as follows: […]

[2] = system: MDA PaCa-2 pancreatic cell carcinoma; details: MIA PaCa-2 pancreatic cell carcinoma; averages of 2-8 determinations
Description: as §1

[3] = system: MDA-MB-231 breast cell adenocarcinoma; details: averages of 2-8 determinations
Description: as §1

[4] = system: PC-3 prostrate cell adenocarcinoma; details: averages of 2-8 determinations
Description: as §1

[5] = system: T24 bladder cell carcinoma; details: averages of 2-8 determinations
Description: as §1

[6] = system: HepG2 hepatocellular carcinoma; details: averages of 2-8 determinations
Description: as §1

[7] = system: HCT116 colon cell carcinoma; details: averages of 2-8 determinations
Description: as §1

Sequence | Reduced relative colony forming efficiency, A549 (% inhibition of colony forming ability) [1] | Reduced relative colony forming efficiency, MIA PaCa-2 (% inhibition of colony forming ability) [2] | Reduced relative colony forming efficiency, MDA-MB-231 (% inhibition of colony forming ability) [3] | Reduced relative colony forming efficiency, PC-3 (% inhibition of colony forming ability) [4] | Reduced relative colony forming efficiency, T24 (% inhibition of colony forming ability) [5] | Reduced relative colony forming efficiency, HepG2 (% inhibition of colony forming ability) [6] | Reduced relative colony forming efficiency, HCT116 (% inhibition of colony forming ability) [7]
AAACGGCTTCTCACACATAT (antisense dA*dA*dA*dC*dG*dG*dC*dT*dT*dC*dT*dC*dA*dC*dA*dC*dA*dT*dA*dT) [AS-II-2151-20] | 79.19% | 62.15% | 95.14% | 84.86% | 79.83% | – | –
AACCGGAAAAGAAAATGCCT (antisense dA*dA*dC*dC*dG*dG*dA*dA*dA*dA*dG*dA*dA*dA*dA*dT*dG*dC*dC*dT) [AS-II-890-20] | 81.6% | 66.02% | 88.2% | 87.93% | 82.07% | – | –
ACCCTTCCCATTGGCTGCGC (antisense dA*dC*dC*dC*dT*dT*dC*dC*dC*dA*dT*dT*dG*dG*dC*dT*dG*dC*dG*dC) [AS-II-6-20] | – | 95.15% | 85.4% | 59.21% | 73.55% | 97.89% | –
ATTAAAATCTGCGTTGAAGC (antisense dA*dT*dT*dA*dA*dA*dA*dT*dC*dT*dG*dC*dG*dT*dT*dG*dA*dA*dG*dC) [AS-II-1700-20] | 77.28% | 34.52% | 30.75% | 90.63% | 70.94% | – | –
CACACAACCTACTTACACCA (antisense dC*dA*dC*dA*dC*dA*dA*dC*dC*dT*dA*dC*dT*dT*dA*dC*dA*dC*dC*dA) [AS-II-2372-20] | 96.41% | 94.36% | 90.09% | 86.06% | 61.13% | – | 64.7%
CAGAATATCGACGCAAAAGA (dC*dA*dG*dA*dA*dT*dA*dT*dC*dG*dA*dC*dG*dC*dA*dA*dA*dA*dG*dA) [AS-II-909-20] | 78.68% | 46.13% | 45.96% | 84.86% | 78.57% | – | –
CGGGTCCGTGATGGGCGCGA (antisense dC*dG*dG*dG*dT*dC*dC*dG*dT*dG*dA*dT*dG*dG*dG*dC*dG*dC*dG*dA) [AS-II-217-20] | – | 87.38% | 52.7% | 87.41% | 65.02% | 99.55% | 61.85%
GACATCACTCCCATCCTCTG (antisense dG*dA*dC*dA*dT*dC*dA*dC*dT*dC*dC*dC*dA*dT*dC*dC*dT*dC*dT*dG) [AS-II-1302-20] | 93.17% | 23.86% | 92.2% | 79.01% | 70.56% | – | 71.98%
GGCCCAGATCACCCCTAAAT (antisense dG*dG*dC*dC*dC*dA*dG*dA*dT*dC*dA*dC*dC*dC*dC*dT*dA*dA*dA*dT) [AS-II-2128-20] | 87.31% | 39.23% | 91.3% | 88.89% | 83.74% | – | –
GGGCACATCTTCAGTTCATT (antisense dG*dG*dG*dC*dA*dC*dA*dT*dC*dT*dT*dC*dA*dG*dT*dT*dC*dA*dT*dT) [AS-II-1364-20] | 95.59% | 59.34% | 93.87% | 79.01% | 66.59% | – | 77.29%
TATCGCCGCCGTGAGTACAA (antisense dT*dA*dT*dC*dG*dC*dC*dG*dC*dC*dG*dT*dG*dA*dG*dT*dA*dC*dA*dA) [AS-II-1768-20] | 86.8% | 60.36% | 91.56% | 86.36% | 74.56% | – | –
TCGCCTACTCTCTTCTCAAA (antisense dT*dC*dG*dC*dC*dT*dA*dC*dT*dC*dT*dC*dT*dT*dC*dT*dC*dA*dA*dA) [AS-II-1278-20] | – | 57.05% | 90.68% | 85.31% | 65.42% | – | –
TGCCTCCGACCCTTCCCATT (antisense dT*dG*dC*dC*dT*dC*dC*dG*dA*dC*dC*dC*dT*dT*dC*dC*dC*dA*dT*dT) [AS-II-14-20] | – | 47.93% | 91.24% | 92.76% | 77.59% | 88.4% | –
TGGCACCAACTGACTAATAT (antisense dT*dG*dG*dC*dA*dC*dC*dA*dA*dC*dT*dG*dA*dC*dT*dA*dA*dT*dA*dT) [AS-II-1976-20] | – | – | 89.6% | 88.16% | – | – | –
TGGCTGTGCTGGTTAAAGGA (antisense dT*dG*dG*dC*dT*dG*dT*dG*dC*dT*dG*dG*dT*dT*dA*dA*dA*dG*dG*dA) [AS-II-1659-20] | 54.7% | 42.54% | 42.86% | 81.56% | 74.09% | – | –
TTAGTGGTCAGGAGAATGTA (antisense dT*dT*dA*dG*dT*dG*dG*dT*dC*dA*dG*dG*dA*dG*dA*dA*dT*dG*dT*dA) [AS-II-1819-20] | – | 20.02% | 90.68% | 85.46% | 53.74% | 83.89% | –
TTCATGGTGTGGCTAGTTGG (antisense dT*dT*dC*dA*dT*dG*dG*dT*dG*dT*dG*dG*dC*dT*dA*dG*dT*dT*dG*dG) [AS-II-1438-20] | 51.27% | 42.13% | 69.06% | 83.96% | 43.7% | – | –
TTTTAACTGGCTGTGCTGGT (antisense dT*dT*dT*dT*dA*dA*dC*dT*dG*dG*dC*dT*dG*dT*dG*dC*dT*dG*dG*dT) [AS-II-1666-20] | 54.82% | 49.72% | 26.71% | 86.06% | 71.71% | – | –
